In patent US20020051978A1, “Methods and compositions for the identification, assessment, prevention and therapy of human cancers” (priority 2000, published 2002):
“And” between values parts separate entries of the source, which are not always exact repeats. Identical values can stand only once. Like-named read-outs stand apart in the source and are kept apart here.

System: 60 cancer cell lines (NCI 60 cancer cell line series)
Assay: NCI-DTP in vitro cancer screen, sulforhodamine B (SRB) growth inhibition, 48 hour exposure
Format: cell-based, human
Protocol: Cancer Cell Line Preparation. Sixty cancer cell lines were obtained from the National Cancer Institute Developmental Therapeutics Program (NCI-DTP). Procedures for growing cells and testing compounds have been described previously (Scudiero et al., Cancer Res. 1988, 48:4827-4833; Stinson et al., Anticancer Res.; Myers et al., Electrophoresis 1997, 18:647-653). Cells are plated on day 0 at a density individualized for each cell line so that they will generally be sub-confluent at the end of the assay period. On day 1, a compound is added in the format for a duplicate-well, 5-dose, ten-fold interval dose response study.
No-drug, no-cell and no-growth controls are included. On day 3 the cells are processed for staining with sulforhodamine B (SRB), which reflects the amount of cell mass present at the end of a 48 hour exposure to the test agent. From dose response curves based on the SRB data, various parameters can be determined. The one used in the present study is the G15o, defined as the concentration of compound required to inhibit growth of the cell line by 50%. More precisely, the quantity used in the calculation to be described is the potency measure -log{GI50}.
Activity database (A). Table IA, consisting of the growth inhibition (GI5o) values for the 60 cell lines and 24 compounds, was created from the NCI-DTP in vitro cancer screen database. This subset of compounds was selected from the larger 23,000 compound database available from the DTP. The compounds were selected on the basis of their known mechanism of action and chemical structure. The average potency—log{GI50} was extracted from the comma-delimited text files available through the Web at http://www.nci.nih.gov/intra/lmp/jnwbio.htmrl. Subsequently, these log{GI5o} values were inspected manually and classified as indicating either Low, Medium or High sensitivity to each compound.

Structure (SMILES): COc1cccc2c1C(=O)c1c(O)c3c(c(O)c1C2=O)C[C@@](O)(C(=O)CO)C[C@@H]3O[C@H]1C[C@H](N)[C@H](O)[C@H](C)O1 [Adrlamycin]
- classification of cell line as Low(1), Medium(2) or High(3) sensitivity to compound (Breast BT-549 (CL5013)): 2
- classification of cell line as Low(1), Medium(2) or High(3) sensitivity to compound (Breast HS-578T CL5006): 2
- classification of cell line as Low(1), Medium(2) or High(3) sensitivity to compound (Breast MCF7(I) (CL5001)): 3
- classification of cell line as Low(1), Medium(2) or High(3) sensitivity to compound (Breast MCF7/ADRr (CL5002)): 1
- classification of cell line as Low(1), Medium(2) or High(3) sensitivity to compound (Breast MDA-MB-231 CL5005): 2
- classification of cell line as Low(1), Medium(2) or High(3) sensitivity to compound (Breast MDA-MB-435 (CL5011)): 2
- classification of cell line as Low(1), Medium(2) or High(3) sensitivity to compound (Breast MDA-N CL5012): 2
- classification of cell line as Low(1), Medium(2) or High(3) sensitivity to compound (Breast T-47D (CL5014)): 2
- classification of cell line as Low(1), Medium(2) or High(3) sensitivity to compound (CNS SF-268 CL12014): 2
- classification of cell line as Low(1), Medium(2) or High(3) sensitivity to compound (CNS SF-295 CL12015): 2

Structure (SMILES): Nc1ccn([C@@H]2O[C@H](CO)[C@@H](O)[C@@H]2O)c(=O)n1 [AraC]
- 1 # of Low: 17
- 2 # of Medium: 33
- 3 # of High: 10
- classification of cell line as Low(1), Medium(2) or High(3) sensitivity to compound: 2 and 3 and 1
- sensitivity class NSCLC NCI-H23(I) CL1001: 3
- sensitivity class NSCLC NCI-H332M CL1017: 2
- sensitivity class NSCLC NCI-H460 CL1021: 3
- sensitivity class NSCLC NCI-H522 CL1003: 2
- sensitivity class Ovarian IGROV1 CL6010: 1
- sensitivity class Ovarian OVCAR-3 CL6001: 1
- sensitivity class Ovarian OVCAR-4 CL6002: 1
- sensitivity class Ovarian OVCAR-5 CL6003: 2
- sensitivity class Ovarian OVCAR-8 CL6005: 2
- sensitivity class Ovarian SK-OV-3 CL6011: 2
- sensitivity class Prostate DU-145 CL11003: 1
- sensitivity class Prostate PC-3(I) CL11001: 2
- sensitivity class Renal 786-O CL9018: 2
- sensitivity class Renal A498 CL9013: 2
- sensitivity class Renal ACHN CL9023: 2
- sensitivity class Renal CAKI-1 CL9015: 2
- sensitivity class Renal RXF-393 CL9016: 2
- sensitivity class Renal SN12C CL9008: 2
- sensitivity class Renal TK10 CL9024: 1
- sensitivity class Renal UO-31 CL9004: 2
- sensitivity class of the cell line to the compound (1 Low, 2 Medium, 3 High): 2 and 1 and 3

Structure (SMILES): O=NN(CCCl)C(=O)NCCCl [BCNU]
- 1 # of Low: 13
- 2 # of Medium: 37
- 3 # of High: 10
- sensitivity class NSCLC NCI-H23(I) CL1001: 2
- sensitivity class NSCLC NCI-H332M CL1017: 1
- sensitivity class NSCLC NCI-H460 CL1021: 2
- sensitivity class NSCLC NCI-H522 CL1003: 3
- sensitivity class Ovarian IGROV1 CL6010: 2
- sensitivity class Ovarian OVCAR-3 CL6001: 2
- sensitivity class Ovarian OVCAR-4 CL6002: 2
- sensitivity class Ovarian OVCAR-5 CL6003: 1
- sensitivity class Ovarian OVCAR-8 CL6005: 2
- sensitivity class Ovarian SK-OV-3 CL6011: 1
- sensitivity class Prostate DU-145 CL11003: 1
- sensitivity class Prostate PC-3(I) CL11001: 2
- sensitivity class Renal 786-O CL9018: 3
- sensitivity class Renal A498 CL9013: 1
- sensitivity class Renal ACHN CL9023: 2
- sensitivity class Renal CAKI-1 CL9015: 2
- sensitivity class Renal RXF-393 CL9016: 2
- sensitivity class Renal SN12C CL9008: 2
- sensitivity class Renal TK10 CL9024: 2
- sensitivity class Renal UO-31 CL9004: 1

Structure (SMILES): COc1cccc2c1C(=O)c1c(O)c3c(c(O)c1C2=O)C[C@@](O)(C(=O)CO)C[C@@H]3O[C@H]1C[C@H](N)C[C@H](C)O1 [Deoxydoxorubicin]
- classification of cell line as Low(1), Medium(2) or High(3) sensitivity to compound (Breast BT-549 (CL5013)): 2
- classification of cell line as Low(1), Medium(2) or High(3) sensitivity to compound (Breast MCF7/ADRr (CL5002)): 1
- classification of cell line as Low(1), Medium(2) or High(3) sensitivity to compound (Breast MDA-N CL5012): 2
- classification of cell line as Low(1), Medium(2) or High(3) sensitivity to compound (CNS SF-268 CL12014): 2
- classification of cell line as Low(1), Medium(2) or High(3) sensitivity to compound (CNS SF-295 CL12015): 2
- classification of cell line as Low(1), Medium(2) or High(3) sensitivity to compound (CNS SF-539 CL12016): 2
- classification of cell line as Low(1), Medium(2) or High(3) sensitivity to compound (CNS SNB-19 (CL12002)): 2
- classification of cell line as Low(1), Medium(2) or High(3) sensitivity to compound (CNS SNB-75(I) CL12005): 2
- classification of cell line as Low(1), Medium(2) or High(3) sensitivity to compound (CNS U251(I) CL12009): 2
- classification of cell line as Low(1), Medium(2) or High(3) sensitivity to compound (Colon COLO-250 CL4010): 2
- classification of cell line as Low(1), Medium(2) or High(3) sensitivity to compound (Colon HCT-15 CL4015): 1
- classification of cell line as Low(1), Medium(2) or High(3) sensitivity to compound (Colon HT29(I) CL4001): 2
- classification of cell line as Low(1), Medium(2) or High(3) sensitivity to compound (Colon KM12 (CL4017)): 2
- classification of cell line as Low(1), Medium(2) or High(3) sensitivity to compound (Leukemia CCRF-CEM(I) (CL7003)): 2
- classification of cell line as Low(1), Medium(2) or High(3) sensitivity to compound (Leukemia K562(I) CL7005): 2
- classification of cell line as Low(1), Medium(2) or High(3) sensitivity to compound (Leukemia RPMI-8226(I) (CL7010)): 2
- classification of cell line as Low(1), Medium(2) or High(3) sensitivity to compound (Leukemia SR CL7019): 3
- classification of cell line as Low(1), Medium(2) or High(3) sensitivity to compound (Melanoma LOX IMVI CL10001): 2
- classification of cell line as Low(1), Medium(2) or High(3) sensitivity to compound (Melanoma M14 (CL10014)): 2
- classification of cell line as Low(1), Medium(2) or High(3) sensitivity to compound (Melanoma MALME-3M CL10002): 2
- sensitivity class NSCLC NCI-H23(I) CL1001 (cell line NSCLC NCI-H23(I), CL1001): 2
- sensitivity class NSCLC NCI-H522 CL1003 (cell line NSCLC NCI-H522, CL1003): 2
- sensitivity class Ovarian IGROV1 CL6010 (cell line Ovarian IGROV1, CL6010): 2
- sensitivity class Ovarian OVCAR-3 CL6001 (cell line Ovarian OVCAR-3, CL6001): 2
- sensitivity class Ovarian OVCAR-4 CL6002 (cell line Ovarian OVCAR-4, CL6002): 2
- sensitivity class Ovarian OVCAR-8 CL6005 (cell line Ovarian OVCAR-8, CL6005): 2
- sensitivity class Ovarian SK-OV-3 CL6011 (cell line Ovarian SK-OV-3, CL6011): 2
- sensitivity class Prostate DU-145 CL11003 (cell line Prostate DU-145, CL11003): 2
- sensitivity class Prostate PC-3(I) CL11001 (cell line Prostate PC-3(I), CL11001): 2
- sensitivity class Renal A498 CL9013 (cell line Renal A498, CL9013): 2
- sensitivity class Renal SN12C CL9008 (cell line Renal SN12C, CL9008): 2
- sensitivity class Renal TK10 CL9024 (cell line Renal TK10, CL9024): 1
- sensitivity class Renal UO-31 CL9004 (cell line Renal UO-31, CL9004): 1
- 3 # of High (number of the 60 cell lines classified High (3) sensitivity): 7

Structure (SMILES): CC(=O)O[C@H]1C(=O)[C@@]2(C)[C@H]([C@H](OC(=O)c3ccccc3)[C@]3(O)C[C@H](OC(=O)[C@H](O)[C@@H](NC(=O)c4ccccc4)c4ccccc4)C(C)=C1C3(C)C)[C@]1(OC(C)=O)CO[C@@H]1C[C@@H]2O [TAXOL, paclitaxel, reference compound]
- classification of cell line as Low(1), Medium(2) or High(3) sensitivity to compound: 2 and 1 and 3
- sensitivity class NSCLC NCI-H23(I) CL1001: 2
- sensitivity class NSCLC NCI-H332M CL1017: 2
- sensitivity class Ovarian IGROV1 CL6010: 2
- sensitivity class Ovarian OVCAR-4 CL6002: 1
- sensitivity class Ovarian OVCAR-8 CL6005: 2
- sensitivity class Ovarian SK-OV-3 CL6011: 2
- sensitivity class Prostate DU-145 CL11003: 2
- sensitivity class Prostate PC-3(I) CL11001: 2
- sensitivity class Renal 786-O CL9018: 2
- sensitivity class Renal ACHN CL9023: 1
- sensitivity class Renal CAKI-1 CL9015: 1
- sensitivity class Renal RXF-393 CL9016: 2
- sensitivity class Renal SN12C CL9008: 2
- sensitivity class Renal UO-31 CL9004: 1
- sensitivity class of the cell line to the compound (1 Low, 2 Medium, 3 High): 1 and 3 and 2

Structure (SMILES): CC[C@]1(O)C[C@@H]2CN(CCc3c([nH]c4ccccc34)[C@@](C(=O)OC)(c3cc4c(cc3OC)N(C)[C@H]3[C@@](O)(C(=O)OC)[C@H](OC(C)=O)[C@]5(CC)C=CCN6CC[C@]43[C@@H]65)C2)C1.O=S(=O)(O)O [Vinbiastine sulfate]
- classification of cell line as Low(1), Medium(2) or High(3) sensitivity to compound: 2 and 3 and 1
